{"source": "patent US11976280B2", "about": "“SMAC/Diablo inhibitors useful for treating cancer” (THE NATIONAL INSTITUTE FOR BIOTECHNOLOGY IN THE NEGEV LTD., priority 2017, dated 2024)", "key": {"[1]": {"system": "A549 cells-derived tumors", "assay": "Phospholipids, phosphatidylcholine and phosphatidylethanolamine in tumor lipid extracts", "assay_type": "in vivo, mice", "procedure": "Lipids were extracted from si-NT-TTs and si-hSMAC-A-TTs as described previously (Folch, J., M. et al., 1957. J Biol Chem, 226(1): p. 497-509.). Briefly, 10-20 mg of tissue were added to CHCl3/MeOH (2:1, v/v) (7.5 mg/ml) and homogenized twice using ultrasound sonication. Water (12 μl/mg) was added to the suspension; the tube was closed with a glass cap and shaken at room temperature for 2 h at 400 rpm. The suspension was heated to 60° C. for […] and subsequently stored at 8° C. for more than 1 h in order to denature proteolipids. Undissolved material was separated by filtration through a Syringe Filter (0.4 μm pore). After evaporation of solvent, the residue was re-dissolved in CHCl3/MeOH. The suspension was filtered and the solvent was evaporated again. The weight of the extracted lipids was determined.\nPhospholipids content of the lipids extracted from si-NT-TTs and si-hSMAC-A-TTs as described above was determined based on the formation of a complex of the phospholipids with ammonium ferrothiocyanate as described previously (Stewart, J. C., 1980. Anal Biochem, 104(1): p. 10-14). The absorbance at 488 nm was determined and the amounts of phospholipids were calculated using phosphatidylcholine (PC) a standard (10-100 μg). For phosphatidylcholine (PC) determination, samples of the extracted lipids were analyzed using ammonium thiocyanatocobaltate reagent as described previously (Yoshida, Y., E. et al., 1979. J Biochem, 86(3): p. 825-828). The absorbance at 316 nm was measured and PC amount was calculated using a phosphatidylcholine standard (10-100 μg).\nPhosphatidylethanolamine (PE) content of the lipids extracted from si-NT-TTs and si-hSMAC-A-TTs was measured using a fluorescence-based assay as described previously (Jae-Yeon Choi et al. 2018. J. Biol. Chem 293, 1493-1503). Briefly, samples of lipid extracted from tumors as described above were dissolved in chloroform and after then chloroform was evaporated under gas nitrogen. The dried extract was then re-suspended in 0.8 mM Triton X-100. To 20 μl of lipid samples, reaction mixture including 50 μl reaction buffer (80 mM NaCl, 2 mM KPO4, pH 7.4), 30 μL H2O and 12.5 μl borate buffer (100 mM boric acid, NaCl 75 mM, sodium tetraborate 25 mM, pH, 9) were added and placed in 96 well plate and mixed well. 12.5 μl of 100 μM distyrylbenzene-bis-aldehyde (DSB-3), kindly provided by Prof. Uwe Bunz, (Organisch-Chemisches Institute, Heidelberg, Germany) prepared in 10 mM KH2PO4, pH 7.4 were then added. After 2 h of incubation in dark with shaking at 100 rpm, fluorometric detection of PE was carried out at λex=403 nm, λem=508 nm, using a plate reader. A standard curve using purified PE was carried out in parallel.\nThe amounts of total phospholipids and PC in si-NC-TTs and si-SMAC-A-TTs lipid extracts were analyzed (FIG. 10F). […]"}, "A549 cells": {"system": "A549 cells", "assay": "Cell cycle analysis by flow cytometry", "assay_type": "cell-based, human", "details": "relative to etoposide-treated cells; 50 nM", "procedure": "For cell cycle analysis, cells were harvested, washed with PBS and fixed with ice-cold 70% ethanol overnight at −20° C. The cells were then washed with PBS, incubated with RNase A (100 μg/ml) in PBS for […] at 37° C. Then the cells were incubated with PI (1 μg/ml) before analysis on a flow cytometer (iCyt Eclipse EC800, UK). Single cells were gated and a minimum of 10,000 cells acquired and analyzed by FACS Eclipse analyzer."}, "[2]": {"system": "A549 cells-derived tumors", "assay": "q-PCR of lipid synthesis genes in tumors", "assay_type": "in vivo, human", "procedure": "(§1) Total RNA was isolated from cells using an RNeasy mini kit (Qiagen) according to the manufacturer's instructions. Complementary DNA was synthesized from 1 μg total RNA using a Verso cDNA synthesis kit (Thermo Scientific). q-PCR was performed using specific primers (KiCqStart Primers; Sigma Aldrich) in triplicates, using Power SYBER green master mix (Applied Biosystems, Foster City, CA). The levels of the target genes were normalized relative to β-actin mRNA levels. Samples were amplified by a 7300 Real Time PCR System (Applied Biosystems) 95° C. for 2 minutes and for 40 cycles using the following PCR parameters: 95° C. for 15 seconds, 60° C. for 1 minute, and 72° C. for 1 minute. The copy numbers for each sample were calculated by the CT-based calibrated standard curve method. The mean fold changes (±SEM) of the three replicates were calculated.\nTherefore, using q-PCR, the levels of genes encoding enzymes associated with diacylglycerol (DAG) synthesis, such as glycerol kinase (GK), and the mitochondrial proteins glycerol-3-phosphate acyltransferase 1 and 4 (GPAM1, GPAM4) were analyzed."}, "[3]": {"system": "A549-derived xenograft tumors", "assay": "TUNEL and q-PCR of apoptosis-associated genes in A549-derived xenograft tumors", "assay_type": "in vivo, mice", "procedure": "as §1\nTumor sections were processed for the TUNEL assay using the DeadEnd Fluorometric TUNEL system (Promega, Madison, WI) according to the manufacturer's instructions. […]\nAs SMAC/Diablo released from mitochondria during apoptosis binds to and counters the activities of IAPs leading to the release of bound caspases (Verhagen, A. M., et al. 2000. Cell 102, 43-53), the expression levels of XIAP1, cIAP1, and cIAP2, as well as of pro-apoptotic proteins including caspases 3, 8, and 9, Cyto c, and AIF were analyzed."}}, "note": "d = 2'-deoxy (DNA); r = 2'-OH (RNA)", "data": [{"substance": "si-hSMAC-A: siRNA to human SMAC/Diablo; sense 5′AAGCGGUGUUUCUCAGAAUUGtt3′ (SEQ ID NO:20), antisense 5′AACAAUUCUGAGAAACCCGCtt3′ (SEQ ID NO:21) (sense AAGCGGUGUUUCUCAGAAUUGTT; antisense AACAAUUCUGAGAAACCCGCTT; sense: sugars from the 5' end r21 d2, backbone not given here; antisense: sugars from the 5' end r20 d2, backbone not given here)", "values": [{"measurement": "decrease in phospholipids and specifically PC content", "setting": "[1]; relative to si-NT-TTs", "result": "40-50%"}, {"measurement": "increase in phosphatidylethanolamine (PE) levels", "setting": "[1]; relative to si-NT-TTs", "result": 2, "unit": "fold"}, {"measurement": "decrease in PC", "setting": "[1]; tumor lipid extracts", "result": 37, "unit": "%"}, {"measurement": "decrease in total phospholipids", "setting": "[1]; tumor lipid extracts", "result": 47, "unit": "%"}, {"measurement": "increase in the number of cells in S-phase", "setting": "A549 cells", "result": "about 3 fold"}, {"measurement": "mRNA of GK, GPAM1, GPAM4 (DAG synthesis)", "setting": "[2]", "result": "decreased"}, {"measurement": "mRNA of PEMT, CHKA, CHPT1, PLA2G1B", "setting": "[2]", "result": "increased"}, {"measurement": "apoptosis, TUNEL staining", "setting": "[3]; mouse, in vivo", "result": "lack of significant apoptosis"}, {"measurement": "mRNA expression levels of XIAP1, cIAP1, cIAP2, caspases 3, 8, 9, Cyto c, AIF", "setting": "[3]; q-PCR", "result": "noticeably decreased"}]}]}
